Data on 18 molecules can be found in ChEMBL document CHEMBL5352468, “Rational design, synthesis, and pharmacological evaluation of a cohort of novel beta-adrenergic receptors ligands enables an assessment of structure-activity relationships” (Eur J Med Chem, 2023).

Holding throughout (assay type): functional, cell-based
Assay [1] addresses T1, Beta-3 adrenergic receptor (Homo sapiens, UniProt P13945). The assay can be described thus: Antagonist activity at human beta3-adrenergic receptor expressed in CHO-K1 cells co-expressing CRE-SPAP reporter gene assessed as inhibition of fenoterol-induced CRE-SPAP production by measuring rightward shift of the fenoterol concentration response curve measured after 5 hrs incubation. The note with it: for Kd: read-out: pKd (converted); for pKd: read-out: Kd. On the technique in general: Reporter assays use an easily measured gene product as a stand-in for the process of interest.

Assay [2] deals with T1, Beta-3 adrenergic receptor. The assay can be described thus: Agonist activity at human beta3-adrenergic receptor expressed in CHO-K1 cells co-expressing CRE-SPAP reporter gene assessed as CRE-SPAP production measured after 5 hrs incubation. The note with it: for EC50: read-out: pEC50 (converted).
The target in assay [3] is T2, Beta-2 adrenergic receptor (Homo sapiens, UniProt P07550). Nature of the assay: Antagonist activity at human beta2-adrenergic receptor expressed in CHO-K1 cells co-expressing CRE-SPAP reporter gene assessed as inhibition of fenoterol-induced CRE-SPAP production by measuring rightward shift of the fenoterol concentration response curve measured after 5 hrs incubation. Conditions: for Kd: read-out: pKd (converted); for pKd: read-out: Kd.
T2 sequence (P07550 whole entry): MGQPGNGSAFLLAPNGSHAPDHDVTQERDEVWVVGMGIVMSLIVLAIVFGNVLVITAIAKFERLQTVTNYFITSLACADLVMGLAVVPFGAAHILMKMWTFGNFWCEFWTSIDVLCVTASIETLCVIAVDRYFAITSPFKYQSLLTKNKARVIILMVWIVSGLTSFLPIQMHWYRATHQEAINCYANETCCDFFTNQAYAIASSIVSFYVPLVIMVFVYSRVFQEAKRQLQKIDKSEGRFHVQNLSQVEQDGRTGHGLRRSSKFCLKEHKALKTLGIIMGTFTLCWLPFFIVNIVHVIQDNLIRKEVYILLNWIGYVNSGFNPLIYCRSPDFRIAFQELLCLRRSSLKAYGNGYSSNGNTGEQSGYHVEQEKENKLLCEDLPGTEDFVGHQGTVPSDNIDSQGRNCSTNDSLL

Assay [4] deals with T2, Beta-2 adrenergic receptor. The assay can be described thus: Agonist activity at human beta2-adrenergic receptor expressed in CHO-K1 cells co-expressing CRE-SPAP reporter gene assessed as CRE-SPAP production measured after 5 hrs incubation. Conditions: for pEC50: read-out: EC50.
Assay [5] deals with T3, Beta-1 adrenergic receptor (Homo sapiens, UniProt P08588). Nature of the assay: Antagonist activity at human beta1-adrenergic receptor expressed in CHO-K1 cells co-expressing CRE-SPAP reporter gene assessed as inhibition of fenoterol-induced CRE-SPAP production by measuring rightward shift of the fenoterol concentration response curve measured after 5 hrs incubation. Conditions: for Kd: read-out: pKd (converted); for pKd: read-out: Kd.
T3 sequence (P08588 whole entry): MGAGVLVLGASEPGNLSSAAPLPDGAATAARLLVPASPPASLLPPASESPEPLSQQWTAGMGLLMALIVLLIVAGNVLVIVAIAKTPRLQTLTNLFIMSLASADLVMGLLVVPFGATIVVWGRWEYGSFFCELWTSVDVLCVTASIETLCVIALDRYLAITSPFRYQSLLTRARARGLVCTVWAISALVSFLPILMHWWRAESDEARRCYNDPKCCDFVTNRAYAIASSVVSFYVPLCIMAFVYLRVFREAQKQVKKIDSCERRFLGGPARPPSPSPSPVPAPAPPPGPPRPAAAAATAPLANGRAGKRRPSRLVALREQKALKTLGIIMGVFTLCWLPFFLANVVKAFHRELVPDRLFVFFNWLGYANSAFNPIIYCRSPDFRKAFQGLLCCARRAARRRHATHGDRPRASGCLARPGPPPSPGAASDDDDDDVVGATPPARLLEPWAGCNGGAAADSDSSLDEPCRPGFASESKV

Assay [6] addresses T3, Beta-1 adrenergic receptor. Nature of the assay: Agonist activity at human beta1-adrenergic receptor expressed in CHO-K1 cells co-expressing CRE-SPAP reporter gene assessed as CRE-SPAP production measured after 5 hrs incubation.

Each structure is given as a SMILES string. pEC50, pKd: −log10 of the molar value.

T1 sequence (P13945 whole entry): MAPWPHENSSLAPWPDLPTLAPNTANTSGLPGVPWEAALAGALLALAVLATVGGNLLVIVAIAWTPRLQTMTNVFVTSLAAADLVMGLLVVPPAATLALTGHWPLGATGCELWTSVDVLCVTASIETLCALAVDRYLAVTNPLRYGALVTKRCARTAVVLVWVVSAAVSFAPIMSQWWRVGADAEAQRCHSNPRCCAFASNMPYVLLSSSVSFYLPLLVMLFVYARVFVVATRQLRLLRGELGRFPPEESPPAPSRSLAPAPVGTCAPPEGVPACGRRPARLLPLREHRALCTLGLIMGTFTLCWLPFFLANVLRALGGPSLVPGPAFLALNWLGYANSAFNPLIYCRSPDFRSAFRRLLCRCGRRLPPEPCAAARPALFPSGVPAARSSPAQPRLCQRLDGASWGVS

For the molecule `CCc1ccccc1OC[C@@H](O)CN[C@H]1CCCc2ccccc21`, the results for the Kd in assay [1] and in assay [3] were 69.2 nM and 3.8 nM, respectively. Moreover, the figures for the EC50 in assay [2] and in assay [4] (read-out: pEC50 (converted)) were 191 nM and 8.71 nM, respectively.

In the case of `CC(=O)NCc1cccc(OC[C@@H](O)CNCCc2ccc(NS(=O)(=O)c3ccccc3)cc2)c1`, the figures for the Kd in assay [1], in assay [5] and in assay [3] were 6.76 nM, 339 nM and 74.1 nM, respectively. Also, the EC50 in assay [2] is 4.47 nM. Further, the negative-log EC50 (pEC50) (in general, the EC50 on a negative log10 scale, so that one unit is a factor of ten) was 6.42 in assay [6] and 5.00 in assay [4].

Turning to `COC(=O)[C@H](N)Cc1ccc(OC[C@@H](O)CNCC2COc3ccccc3O2)cc1` (stereo partly drawn), the pKd – broadly, −log10 of the Kd, conventionally taken in molar units – in assay [1] was below 5.00.

On to `CCc1ccccc1OC[C@@H](O)CNCCC(c1ccccc1)c1ccccc1`, for which the Kd in assay [5] was 135 nM. Moreover, the pEC50 in assay [6] was 6.51.

`CC1(C)CC(=O)c2ccc(OC[C@H](O)CNCCCN3C(=O)c4ccccc4C3=O)cc2O1`: the negative logarithm of the Kd (pKd) in assay [5] was below 5.00.

Turning to `CC1(C)CC(=O)c2ccc(OC[C@@H](O)CNCCCN3C(=O)c4ccccc4C3=O)cc2O1`, the negative-log Kd (pKd) in assay [5] was below 5.00.

In the case of `O[C@@H](CNCC1COc2ccccc2O1)COc1ccnc2ccccc12` (stereo partly drawn), the Kd in assay [5] is 6030 nM.

For the molecule `O[C@@H](CNCC1COc2ccccc2O1)COc1ccc2c(c1)OCO2` (stereo partly drawn), the figures for the Kd in assay [5] and in assay [3] were 1580 nM and 1550 nM, respectively. Besides, the negative logarithm of the EC50 (pEC50) in assay [6] was 6.50.

Regarding `COc1ccc(S(=O)(=O)NCCCCNC[C@H](O)COc2ccc3c(c2)OC(C)(C)CC3=O)cc1`, the pKd in assay [1] and in assay [5] was below 5.00 each time.

`CS(=O)(=O)c1ccc(CCNC[C@H](O)COc2ccc3ccc(=O)oc3c2)cc1`: the pKd in assay [1] and in assay [3] was below 5.00 each time.

In the case of `O=c1ccc2ccc(OC[C@@H](O)CNCC3COc4ccccc4O3)cc2o1` (stereo partly drawn), the Kd in assay [3] is 6610 nM.

With `O=C1COc2cc(OC[C@@H](O)CNCC3COc4ccccc4O3)ccc21` (stereo partly drawn), in assay [3], the Kd is 3630 nM.

On to `CC1(C)CC(=O)c2ccc(OC[C@@H](O)CNCCCc3ccccc3)cc2O1`, for which the negative-log Kd (pKd) in assay [1] is below 5.00.

Take `O[C@@H](CNCC1COc2ccccc2O1)COc1cccc2cnccc12` (stereo partly drawn): the Kd is 1350 nM in assay [1], 102 nM in assay [5] and 107 nM in assay [3]. The negative-log EC50 (pEC50) in assay [2] (read-out: EC50) is 5.00; in assay [6], 7.13; in assay [4], 5.00.

As for `O=c1ccc2ccc(OC[C@@H](O)CNCCc3ccc4c(c3)OCO4)cc2o1`, in assay [1], the pKd was below 5.00. Besides, the Kd in assay [5] was 5620 nM.

For `CC1(C)CC(=O)c2ccc(OC[C@H](O)CNCCCc3ccccc3)cc2O1`, the pKd in assay [1] was below 5.00.

As for `COc1ccc(S(=O)(=O)NCCCCCCNC[C@H](O)COc2ccc3ccc(=O)oc3c2)cc1`, the pKd in assay [1] is below 5.00.

Consider `CC(=O)Nc1ccc(CCNC[C@H](O)COc2ccc3ccc(=O)oc3c2)cc1`, for which the pKd in assay [1] and in assay [3] was below 5.00 in each case.
